From patent US20260083865A1, “PROSTATE SPECIFIC MEMBRANE ANTIGEN (PSMA) LIGANDS AND USE THEREOF” (priority 2022, published 2026)
Like-named read-outs stand apart in the source and are kept apart here. Numbered stars: 1 amine (or outer) side, 2 acyl side, 3 side chain; on linkers, the order of the positions; unused ones are H or OH. Bridge positions count the residues as written; N and C are the ends. Square brackets hold non-standard residues; d marks the D form. Side chains are listed from the residue outwards. Peptide text beside a SMILES is read from it. * marks the point of attachment. TtdsdLys(DOTA)NH2 = NC(=O)[C@@H](CCCCNC(=O)CN1CCN(CC(=O)O)CCN(CC(=O)O)CCN(CC(=O)O)CC1)NC(=O)CCC(=O)NCCCOCCOCCOCCCN*; X3 = O=C(O)CN1CCN(CC(=O)O)CCN(CC(=O)NCCCOCCOCCOCCCN*)CCN(CC(=O)O)CC1; DOTA = O=C(O)CN1CCN(CC(=O)O)CCN(CC(=O)*)CCN(CC(=O)O)CC1; Trp(6-Cl) = N[C@@H](Cc1c[nH]c2cc(Cl)ccc12)C(=O)O; Phe(4-Cl) = N[C@@H](Cc1ccc(Cl)cc1)C(=O)O; Pro(4R-NH2) = N[C@H]1CN[C@H](C(=O)O)C1; 2Nal = N[C@@H](Cc1ccc2ccccc2c1)C(=O)O; Arg(Me) = CNC(=N)NCCC[C@H](N)C(=O)O; X1 = O=C(CC1CCN([*:1])CC1)[*:2]; Lys(Me) = CNCCCC[C@H](N)C(=O)O; Suc = O=C(CCC(=O)[*:2])[*:1]; Tle = CC(C)(C)[C@H](N)C(=O)O; Nle = CCCC[C@H](N)C(=O)O; Hexanoyl = CCCCCC(=O)*; Aib = CC(C)(N)C(=O)O

Tests used:
[1] = molecular target: T1, Fc-fusion protein of human PSMA (hPSMA-Fc) (Homo sapiens, UniProt Q04609); assay: Surface plasmon resonance assay (Biacore T200, single cycle kinetic); format: binding; conditions: for Kd: read-out: pKD CAT (converted)
T1 construct: purchased Acro Biosystems PSA-H5264
T1 sequence (Q04609 44-750 limits assumed): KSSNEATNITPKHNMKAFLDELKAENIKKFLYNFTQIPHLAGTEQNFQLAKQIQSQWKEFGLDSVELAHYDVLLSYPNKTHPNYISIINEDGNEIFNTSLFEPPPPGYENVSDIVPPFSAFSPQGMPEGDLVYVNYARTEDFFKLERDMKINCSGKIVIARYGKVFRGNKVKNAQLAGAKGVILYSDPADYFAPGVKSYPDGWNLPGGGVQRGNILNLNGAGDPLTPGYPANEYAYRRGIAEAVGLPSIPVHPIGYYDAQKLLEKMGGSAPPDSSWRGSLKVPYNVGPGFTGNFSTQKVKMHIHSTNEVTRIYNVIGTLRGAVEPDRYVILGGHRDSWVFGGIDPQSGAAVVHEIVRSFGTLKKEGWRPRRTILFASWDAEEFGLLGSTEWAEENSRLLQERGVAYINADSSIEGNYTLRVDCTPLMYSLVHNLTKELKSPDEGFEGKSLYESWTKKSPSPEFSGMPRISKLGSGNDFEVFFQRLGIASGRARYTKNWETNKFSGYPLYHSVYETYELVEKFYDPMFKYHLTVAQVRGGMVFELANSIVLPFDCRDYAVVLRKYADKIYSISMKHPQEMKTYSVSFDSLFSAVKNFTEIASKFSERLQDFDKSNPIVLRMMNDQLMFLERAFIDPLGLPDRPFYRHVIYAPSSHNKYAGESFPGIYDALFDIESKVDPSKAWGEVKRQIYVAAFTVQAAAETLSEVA
In short: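 KD, expressed as pKD, came from 1:1 Langmuir fits of reference- and buffer-blank-subtracted SPR data. The runs were single-cycle kinetics at 25° C in HBST/0.1% DMSO over human PSMA-Fc, captured to ~1000 RU on a peptide-coated CM5 surface and regenerated with 10 mM glycine pH 1.5.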

[2] = molecular target: T2, PSMA-expressing C4-2 cells (Homo sapiens, UniProt Q04609); assay: FACS binding assay (competition with 50 nM PSM-0183); conditions: for IC50: read-out: pIC50 [C4-2] CAT (converted)
T2 construct: PSMA-expressing C4-2 cells (ATCC, Cat. No. CRL-3314) were cultured in RPMI-1640; host or cells: C4-2 cells
T2 sequence (Q04609 whole entry): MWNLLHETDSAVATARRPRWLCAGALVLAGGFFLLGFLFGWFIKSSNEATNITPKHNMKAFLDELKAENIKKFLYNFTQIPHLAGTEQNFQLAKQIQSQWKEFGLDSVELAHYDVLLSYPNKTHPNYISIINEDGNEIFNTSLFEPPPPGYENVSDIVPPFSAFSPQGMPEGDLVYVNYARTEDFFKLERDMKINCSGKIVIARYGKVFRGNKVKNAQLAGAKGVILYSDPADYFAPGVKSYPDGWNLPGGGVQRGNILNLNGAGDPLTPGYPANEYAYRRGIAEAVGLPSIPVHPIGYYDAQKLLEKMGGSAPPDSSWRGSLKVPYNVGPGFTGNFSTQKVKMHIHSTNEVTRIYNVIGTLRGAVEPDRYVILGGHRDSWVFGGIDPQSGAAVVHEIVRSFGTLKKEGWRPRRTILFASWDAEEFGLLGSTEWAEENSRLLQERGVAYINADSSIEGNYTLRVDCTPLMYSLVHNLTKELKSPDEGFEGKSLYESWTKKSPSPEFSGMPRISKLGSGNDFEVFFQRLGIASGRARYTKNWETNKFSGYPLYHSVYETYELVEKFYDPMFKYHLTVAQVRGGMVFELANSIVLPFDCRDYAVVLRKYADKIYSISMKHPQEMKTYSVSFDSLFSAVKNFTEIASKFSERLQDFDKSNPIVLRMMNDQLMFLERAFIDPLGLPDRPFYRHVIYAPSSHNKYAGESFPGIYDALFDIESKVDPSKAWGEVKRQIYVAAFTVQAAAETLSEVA
In short: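 Competition format: fluorescent tracer PSM-0183 (50 nM) displaced from PSMA on C4-2 cells by a test compound titration over 1 h at 4 °C. Bound tracer was quantified as flow-cytometric AF488 median fluorescence after washing. Four-parameter logistic fits of MFI data gave IC50 and pIC50.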

[3] = SPR, hPSMA-Fc, single cycle kinetic, 25° C., category
[4] = FACS binding, C4-2 cells, competition with 50 nM PSM-0183, category
[5] = pKD category for PSMA SPR activity assay, hPSMA-Fc, 25° C.
[6] = pIC50 category of FACS binding, C4-2 cells
[7] = PSMA SPR assay, hPSMA-Fc, 25° C., pKD category
[8] = FACS binding, PSMA-expressing C4-2 cells, pIC50 category

Molecule	Kd [1, 5] [µM]	IC50 [2, 6] [µM]	other results
CC(=O)N[C@H](C(=O)NC(C)(C)C(=O)N[C@@H](Cc1ccccc1)C(=O)N[C@H]1CSSC[C@@H](C(=O)N[C@H](C(=O)N[C@H](C(=O)N[C@@H](CC(=O)O)C(=O)NCCCOCCOCCOCCCNC(=O)CCC(=O)N[C@H](CCCCNC(=O)CN2CCN(CC(=O)O)CCN(CC(=O)O)CCN(CC(=O)O)CC2)C(N)=O)[C@@H](C)O)C(C)(C)C)NC(=O)[C@H](CC(N)=O)NC(=O)C(C)(C)NC(=O)[C@H](CCCNC(=N)N)NC(=O)[C@H](CCCCN)NC1=O)[C@@H](C)O [PSM-0212, Ac-Thr-Aib-Phe-[Cys-Lys-Arg-Aib-Asn-Cys]-Tle-Thr-Asp-Ttds-lys(DOTA)-NH2] (Ac-T[Aib]FCKR[Aib]NC[Tle]TD-{TtdsdLys(DOTA)NH2}; disulfide 4-9)	–	–	Kd [1, 3]: < 0.0126 µM; IC50 [2, 4]: < 0.2 µM
CC(=O)NCCCC[C@@H]1NC(=O)[C@H](CCCCN)NC(=O)[C@@H](NC(=O)[C@H](Cc2ccc(Cl)cc2)NC(=O)C(C)(C)NC(=O)[C@@H](NC(=O)CC2CCN(C(=O)CN3CCN(CC(=O)O)CCN(CC(=O)O)CCN(CC(=O)O)CC3)CC2)[C@@H](C)O)CSSC[C@@H](C(=O)N[C@H](C(=O)N[C@H](C(N)=O)[C@@H](C)O)C(C)(C)C)NC(=O)[C@H](CC(N)=O)NC(=O)C(C)(C)NC1=O [PSM-0341, DOTA-Cmp-Thr-Aib-Pcf-[Cys-Lys-Lys(Ac)-Aib-Asn-Cys]-Tle-Thr-NH2] ({DOTA}-[X1]T[Aib][Phe(4-Cl)]CKK(Ac)[Aib]NC[Tle]T-NH2; disulfide 5-10)	–	–	Kd [1, 7]: < 0.0126 µM; IC50 [2, 8]: 0.2 to 1.26 µM
C[C@@H]1NC(=O)[C@H](CCCNC(=N)N)NC(=O)[C@H](CCCCN)NC(=O)[C@@H](NC(=O)[C@H](Cc2ccccc2)NC(=O)C(C)(C)NC(=O)[C@@H](NC(=O)CCC(=O)NCCCOCCOCCOCCCNC(=O)CN2CCN(CC(=O)O)CCN(CC(=O)O)CCN(CC(=O)O)CC2)[C@@H](C)O)CSSC[C@@H](C(=O)N[C@H](C(=O)N[C@H](C(=O)N[C@@H](CC(=O)O)C(N)=O)[C@@H](C)O)C(C)(C)C)NC(=O)[C@H](CC(N)=O)NC1=O [PSM-0193, DOTA-Ttds-Thr-Aib-Phe-[Cys-Lys-Arg-Ala-Asn-Cys]-Tle-Thr-Asp-NH2] ({X3-Suc}-T[Aib]FCKRANC[Tle]TD-NH2; disulfide 4-9)	–	–	Kd [1, 3]: < 0.0126 µM; IC50 [2, 4]: < 0.2 µM
CC(=O)NC(=N)NCCC[C@@H]1NC(=O)[C@H](CCCCN)NC(=O)[C@@H](NC(=O)[C@H](Cc2ccc(Cl)cc2)NC(=O)C(C)(C)NC(=O)CC2CCN(C(=O)CN3CCN(CC(=O)O)CCN(CC(=O)O)CCN(CC(=O)O)CC3)CC2)CSSC[C@@H](C(=O)N[C@H](C(=O)N[C@H](C(N)=O)[C@@H](C)O)C(C)(C)C)NC(=O)[C@H](CC(N)=O)NC(=O)C(C)(C)NC1=O [PSM-0223, DOTA-Cmp-Aib-Pcf-[Cys-Lys-Arg(Ac)-Aib-Asn-Cys]-Tle-Thr-NH2] ({DOTA}-[X1][Aib][Phe(4-Cl)]CKR(Ac)[Aib]NC[Tle]T-NH2; disulfide 4-9)	–	–	Kd [1, 3]: 0.0126 to 0.126 µM; IC50 [2, 4]: 0.2 to 1.26 µM
nBuCAyl-Thr-Aib-Phe-[Cys-Lys-Arg-Aib-Asn-Cys]-Tle-Thr-Cmp-lys(InDOTA)-NH2 [PSM-0214]	–	–	pKD CAT [1, 3]: A (pKD values >7.9); pIC50 [C4-2] CAT [2, 4]: A (pIC50 values >6.7)
CNCCCC[C@@H]1NC(=O)[C@@H](NC(=O)[C@H](Cc2c[nH]c3cc(Cl)ccc23)NC(=O)C(C)(C)NC(=O)[C@@H](NC(=O)CC2CCN(C(=O)CN3CCN(CC(=O)O)CCN(CC(=O)O)CCN(CC(=O)O)CC3)CC2)[C@@H](C)O)CSSC[C@@H](C(=O)N[C@H](C(N)=O)C(C)(C)C)NC(=O)[C@H](CC(N)=O)NC(=O)C(C)(C)NC(=O)[C@H](CCCNC(=N)NC)NC1=O [PSM-0390, DOTA-Cmp-Tle-Aib-6Clw-[Cys-Lys(Me)-Arg(Me)-Aib-Asn-Cys]-Tle-NH2] ({DOTA}-[X1]T[Aib][Trp(6-Cl)]C[Lys(Me)][Arg(Me)][Aib]NC[Tle]-NH2; disulfide 5-10)	< 0.0126	< 0.2	–
CC(=O)N[C@H](C(=O)NC(C)(C)C(=O)N[C@@H](Cc1ccc(Cl)cc1)C(=O)N[C@H]1CSSC[C@@H](C(=O)N[C@H](C(=O)N[C@H](C(N)=O)[C@@H](C)O)C(C)(C)C)NC(=O)[C@H](CC(C)C)NC(=O)C(C)(C)NC(=O)[C@H](CCCNC(=N)N)NC(=O)[C@H](CCCCN)NC1=O)[C@@H](C)O [PSM-0584, Ac-Thr-Aib-Pcf-[Cys-Lys-Cit-Aib-Leu-Cys]-Tle-Thr-NH2] (Ac-T[Aib][Phe(4-Cl)]CKR[Aib]LC[Tle]T-NH2; disulfide 4-9)	–	–	Kd ([1]; PSMA SPR assay, category): < 0.0126 µM; IC50 ([2]; FACS binding, C4-2 cells, category): < 0.2 µM
CC(=O)N[C@H](C(=O)NC(C)(C)C(=O)N[C@@H](Cc1ccccc1)C(=O)N[C@H]1CSSC[C@@H](C(=O)N[C@H](C(=O)N[C@H](C(N)=O)[C@@H](C)O)C(C)(C)C)NC(=O)[C@H](CC(N)=O)NC(=O)[C@H](CCCCNC(=O)CN2CCN(CC(=O)O)CCN(CC(=O)O)CCN(CC(=O)O)CC2)NC(=O)[C@H](CCCNC(=N)N)NC(=O)[C@H](CCCCN)NC1=O)[C@@H](C)O [PSM-0326, Ac-Thr-Aib-Phe-[Cys-Lys-Arg-Lys(DOTA)-Asn-Cys]-Tle-Thr-NH2] (Ac-T[Aib]FCKRK(DOTA)NC[Tle]T-NH2; disulfide 4-9)	–	–	Kd [1, 7]: 0.0126 to 0.126 µM; IC50 [2, 8]: < 0.2 µM

Continued, in another order:

Kd [1, 5] [µM]	IC50 [2, 6] [µM]	Molecule	other results
> 0.501	1.26 to 3.16	CCCC[C@H](NC(=O)[C@@H]1CSSC[C@H](NC(=O)[C@H](Cc2ccccc2)NC(=O)[C@@H](C)NC(=O)[C@@H](NC(C)=O)[C@@H](C)O)C(=O)N[C@@H](CCCCN)C(=O)N[C@@H](CCCNC(=N)N)C(=O)N[C@@H](C)C(=O)N[C@@H](CC(N)=O)C(=O)N1)C(=O)N[C@H](C(=O)N[C@@H](CC(=O)O)C(N)=O)[C@@H](C)O [PSM-0537, Ac-Thr-ala-Phe-[Cys-Lys-Arg-Ala-Asn-Cys]-Nlc-Thr-Asp-NH2]	–
0.126 to 0.501	< 0.2	CC(=O)N[C@H](C(=O)NC(C)(C)C(=O)N[C@@H](Cc1ccccc1)C(=O)N[C@H]1CSSC[C@@H](C(=O)N[C@H](C(=O)N[C@H](C(=O)N[C@@H](CC(=O)O)C(N)=O)[C@@H](C)O)C(C)(C)C)NC(=O)[C@H](CC(N)=O)NC(=O)[C@H](C)NC(=O)[C@H](CCCNC(=N)N)NC(=O)[C@@H]2C[C@@H](N)CN2C1=O)[C@@H](C)O [PSM-0422, Ac-Thr-Aib-Phe-[Cys-Tap-Arg-Ala-Asn-Cys]-Tle-Thr-Asp-NH2] (Ac-T[Aib]FC[Pro(4R-NH2)]RANC[Tle]TD-NH2; disulfide 4-9)	–
0.0126 to 0.126	< 0.2	CCCC[C@H](NC(=O)[C@@H]1CSSC[C@H](NC(=O)[C@H](Cc2ccccc2)NC(=O)[C@@H]2CCCN2C(=O)[C@@H](NC(C)=O)[C@@H](C)O)C(=O)N[C@@H](CCCCN)C(=O)N[C@@H](CCCNC(=N)N)C(=O)N[C@@H](C)C(=O)N[C@@H](CC(N)=O)C(=O)N1)C(=O)N[C@H](C(=O)N[C@@H](CC(=O)O)C(N)=O)[C@@H](C)O [PSM-0547, Ac-Thr-Pro-Phe-[Cys-Lys-Arg-Ala-Asn-Cys]-Nle-Thr-Asp-NH2] (Ac-TPFCKRANC[Nle]TD-NH2; disulfide 4-9)	–
< 0.0126	< 0.2	CCCCCC(=O)N[C@H](C(=O)NC(C)(C)C(=O)N[C@@H](Cc1ccccc1)C(=O)N[C@H]1CSSC[C@@H](C(=O)N[C@H](C(=O)N[C@H](C(=O)NCCCOCCOCCOCCCNC(=O)CCC(=O)N[C@H](CCCCNC(=O)CN2CCN(CC(=O)O)CCN(CC(=O)O)CCN(CC(=O)O)CC2)C(N)=O)[C@@H](C)O)C(C)(C)C)NC(=O)[C@H](CC(N)=O)NC(=O)[C@H](C)NC(=O)[C@H](CCCNC(=N)N)NC(=O)[C@H](CCCCN)NC1=O)[C@@H](C)O [PSM-0462, Hex-Thr-Aib-Phe-[Cys-Lys-Arg-Ala-Asn-Cys]-Tle-Thr-Ttds-lys(DOTA)-NH2] (Hexanoyl-T[Aib]FCKRANC[Tle]T-{TtdsdLys(DOTA)NH2}; disulfide 4-9)	–
0.0126 to 0.126	0.2 to 1.26	CC(=O)N[C@H](C(=O)NC(C)(C)C(=O)N[C@@H](Cc1ccccc1)C(=O)N[C@H]1CSSC[C@@H](C(=O)N[C@H](C(=O)N[C@H](C(N)=O)[C@@H](C)O)C(C)(C)C)NC(=O)[C@H](CC(N)=O)NC(=O)[C@H](CCCCNC(=O)CCC(=O)NCCCOCCOCCOCCCNC(=O)CN2CCN(CC(=O)O)CCN(CC(=O)O)CCN(CC(=O)O)CC2)NC(=O)[C@H](CCC(N)=O)NC(=O)[C@H](CCCCN)NC1=O)[C@@H](C)O [PSM-0423, Ac-Thr-Aib-Phe-[Cys-Lys-Gln-Lys(DOTA-Ttds)-Asn-Cys]-Tle-Thr-NH2] (Ac-T[Aib]FCKQK([Suc-X3])NC[Tle]T-NH2; disulfide 4-9)	–
< 0.0126	< 0.2	CC(=O)N[C@H](C(=O)NC(C)(C)C(=O)N[C@@H](Cc1ccc2ccccc2c1)C(=O)N[C@H]1CSSC[C@@H](C(=O)N[C@H](C(=O)N[C@H](C(=O)N[C@@H](CC(=O)O)C(N)=O)[C@@H](C)O)C(C)(C)C)NC(=O)[C@H](CC(N)=O)NC(=O)C(C)(C)NC(=O)[C@H](CCCNC(=N)N)NC(=O)[C@H](CCCCN)NC1=O)[C@@H](C)O [PSM-0517, Ac-Thr-Aib-2Ni-[Cys-Lys-Arg-Aib-Asn-Cys]-Tle-Thr-Asp-NH2] (Ac-T[Aib][2Nal]CKR[Aib]NC[Tle]TD-NH2; disulfide 4-9)	–
